Measurements reported in ChEMBL document CHEMBL1201862, “PubChem BioAssay data set” (2004).
Active and inactive are the calls of the source.

Tests used:
Format in all cases: functional
[1] = molecular target: Protein kinase C theta type (Homo sapiens, UniProt Q04759); assay: Navigating the Kinome. Panel member name: PRKCQ
[2] = molecular target: Dual specificity protein kinase CLK2 (Homo sapiens, UniProt P49760)
[3] = molecular target: Dual specificity mitogen-activated protein kinase kinase 1 (Homo sapiens, UniProt Q02750); assay: Navigating the Kinome. Panel member name: MAP2K1
[4] = molecular target: Tyrosine-protein kinase JAK2 (Homo sapiens, UniProt O60674);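 note: JAK2 tested as one member of a kinase panel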
[5] = molecular target: Serine/threonine-protein kinase TBK1 (Homo sapiens, UniProt Q9UHD2); assay: Navigating the Kinome. Panel member name: TBK1
[6] = molecular target: 5'-AMP-activated protein kinase catalytic subunit alpha-1 (Homo sapiens, UniProt Q13131)
[7] = molecular target: ALK tyrosine kinase receptor (Homo sapiens, UniProt Q9UM73);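 note: ALK tested as one member of a kinase panel screen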
[8] = molecular target: Proto-oncogene tyrosine-protein kinase receptor Ret (Homo sapiens, UniProt P07949);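 note: measured within a kinome-wide profiling panel, RET as the panel member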
[9] = molecular target: Tyrosine-protein kinase receptor TYRO3 (Homo sapiens, UniProt Q06418);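 note: TYRO3 value obtained as one member of a kinome-wide profiling panel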
[10] = molecular target: Serine/threonine-protein kinase D3 (Homo sapiens, UniProt O94806);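 note: determined within a kinase panel screen, with PRKCN as the panel member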
[11] = molecular target: Death-associated protein kinase 3 (Homo sapiens, UniProt O43293);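 note: measured as one member of a kinome-wide profiling panel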
Activin receptor type-1 = Activin receptor type-1 (Homo sapiens, UniProt Q04771); assay: Navigating the Kinome. Panel member name: ACVR1
[12] = molecular target: Mitogen-activated protein kinase 8 (Homo sapiens, UniProt P45983);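 note: value comes from one member of a kinome-wide kinase profiling panel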
[13] = molecular target: Serine/threonine-protein kinase pim-1 (Homo sapiens, UniProt P11309)
Aurora kinase A = Aurora kinase A (Homo sapiens, UniProt O14965);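 note: value from the Navigating the Kinome kinase panel profiling, panel entry STK6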
[14] = molecular target: Serine/threonine-protein kinase PAK 4 (Homo sapiens, UniProt O96013);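 note: value obtained within a kinome profiling panel in which PAK4 was one of the panel members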
[15] = molecular target: Fibroblast growth factor receptor 1 (Homo sapiens, UniProt P11362)
[16] = molecular target: Casein kinase I isoform alpha (Homo sapiens, UniProt P48729)
LIM domain kinase 1 = LIM domain kinase 1 (Homo sapiens, UniProt P53667); assay: Navigating the Kinome. Panel member name: LIMK1
[17] = molecular target: Serine/threonine-protein kinase TAO1 (Homo sapiens, UniProt Q7L7X3)
[18] = molecular target: Glycogen synthase kinase-3 alpha (Homo sapiens, UniProt P49840);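 note: GSK3A result taken from a broad kinome-wide kinase panel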
[19] = molecular target: Mitogen-activated protein kinase kinase kinase kinase 2 (Homo sapiens, UniProt Q12851);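 note: measured as one member of a kinome-wide kinase panel, with MAP4K2 as the panel entry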
[20] = molecular target: Hepatocyte growth factor receptor (Homo sapiens, UniProt P08581);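 note: kinase panel profiling across the kinome, with MET as the panel member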
Activated CDC42 kinase 1 = Activated CDC42 kinase 1 (Homo sapiens, UniProt Q07912); assay: Navigating the Kinome. Panel member name: ACK1
[21] = molecular target: Serine/threonine-protein kinase Chk1 (Homo sapiens, UniProt O14757);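 note: measured as one member of a kinome-wide kinase profiling panel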
[22] = molecular target: Tyrosine-protein kinase ABL1 (Homo sapiens, UniProt P00519)
[23] = molecular target: Vascular endothelial growth factor receptor 2 (Homo sapiens, UniProt P35968)
[24] = molecular target: Dual specificity tyrosine-phosphorylation-regulated kinase 1B (Homo sapiens, UniProt Q9Y463); assay: Navigating the Kinome. Panel member name: DYRK1B
[25] = molecular target: cAMP-dependent protein kinase catalytic subunit PRKX (Homo sapiens, UniProt P51817)
[26] = molecular target: Platelet-derived growth factor receptor alpha (Homo sapiens, UniProt P16234); assay: Navigating the Kinome. Panel member name: PDGFRA
[27] = molecular target: Leucine-rich repeat serine/threonine-protein kinase 2 (Homo sapiens, UniProt Q5S007);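 note: value from a broad kinome-wide panel profiling study in which LRRK2 was one of the kinases tested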
Aurora kinase B = Aurora kinase B (Homo sapiens, UniProt Q96GD4)
[28] = molecular target: Cyclin-dependent kinase 19 (Homo sapiens, UniProt Q9BWU1); assay: Navigating the Kinome. Panel member name: CDC2L6
[29] = molecular target: Rho-associated protein kinase 1 (Homo sapiens, UniProt Q13464);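 note: measured within a broad kinome-wide panel profiling many kinases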
[30] = molecular target: Serine/threonine-protein kinase Nek2 (Homo sapiens, UniProt P51955)
[31] = molecular target: Cyclin-dependent kinase 8 (Homo sapiens, UniProt P49336); assay: Navigating the Kinome. Panel member name: CDK8
[32] = molecular target: Cyclin-dependent kinase 7 (Homo sapiens, UniProt P50613);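 note: value comes from a kinome-wide kinase profiling panel in which CDK7 is one member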
[33] = molecular target: Vascular endothelial growth factor receptor 1 (Homo sapiens, UniProt P17948);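 note: measured within a kinome-wide profiling panel, FLT1 as the panel member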
[34] = molecular target: Glycogen synthase kinase-3 beta (Homo sapiens, UniProt P49841);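 note: value comes from a broad kinome profiling panel, with GSK3B as the panel member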
[35] = molecular target: Cyclin-dependent kinase 9 (Homo sapiens, UniProt P50750);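 note: value from the CDK9 entry of a kinome-spanning kinase panel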
[36] = molecular target: BDNF/NT-3 growth factors receptor (Homo sapiens, UniProt Q16620);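 note: NTRK2 measured as one member of a broad kinome-wide kinase profiling panel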
[37] = molecular target: cAMP-dependent protein kinase catalytic subunit alpha (Homo sapiens, UniProt P17612)
[38] = molecular target: Dual specificity protein kinase CLK4 (Homo sapiens, UniProt Q9HAZ1)
[39] = molecular target: Mitogen-activated protein kinase kinase kinase kinase 4 (Homo sapiens, UniProt O95819)
[40] = molecular target: Macrophage-stimulating protein receptor (Homo sapiens, UniProt Q04912); assay: Navigating the Kinome. Panel member name: MST1R
[41] = molecular target: Macrophage colony-stimulating factor 1 receptor (Homo sapiens, UniProt P07333);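 note: value comes from the Navigating the Kinome screening panel, CSF1R member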
[42] = molecular target: Dual specificity mitogen-activated protein kinase kinase 2 (Homo sapiens, UniProt P36507); assay: Navigating the Kinome. Panel member name: MAP2K2
[43] = molecular target: Dual specificity tyrosine-phosphorylation-regulated kinase 1A (Homo sapiens, UniProt Q13627);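 note: measured against DYRK1A as one member of a broad kinome profiling panel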
[44] = molecular target: Inhibitor of nuclear factor kappa-B kinase subunit epsilon (Homo sapiens, UniProt Q14164); assay: Navigating the Kinome. Panel member name: IKBKE
[45] = molecular target: Calcium/calmodulin-dependent protein kinase type II subunit alpha (Homo sapiens, UniProt Q9UQM7); assay: Navigating the Kinome. Panel member name: CAMK2A
[46] = molecular target: Leukocyte tyrosine kinase receptor (Homo sapiens, UniProt P29376); assay: Navigating the Kinome. Panel member name: LTK

BDNF/NT-3 growth factors receptor, sequence (Q16620 whole entry): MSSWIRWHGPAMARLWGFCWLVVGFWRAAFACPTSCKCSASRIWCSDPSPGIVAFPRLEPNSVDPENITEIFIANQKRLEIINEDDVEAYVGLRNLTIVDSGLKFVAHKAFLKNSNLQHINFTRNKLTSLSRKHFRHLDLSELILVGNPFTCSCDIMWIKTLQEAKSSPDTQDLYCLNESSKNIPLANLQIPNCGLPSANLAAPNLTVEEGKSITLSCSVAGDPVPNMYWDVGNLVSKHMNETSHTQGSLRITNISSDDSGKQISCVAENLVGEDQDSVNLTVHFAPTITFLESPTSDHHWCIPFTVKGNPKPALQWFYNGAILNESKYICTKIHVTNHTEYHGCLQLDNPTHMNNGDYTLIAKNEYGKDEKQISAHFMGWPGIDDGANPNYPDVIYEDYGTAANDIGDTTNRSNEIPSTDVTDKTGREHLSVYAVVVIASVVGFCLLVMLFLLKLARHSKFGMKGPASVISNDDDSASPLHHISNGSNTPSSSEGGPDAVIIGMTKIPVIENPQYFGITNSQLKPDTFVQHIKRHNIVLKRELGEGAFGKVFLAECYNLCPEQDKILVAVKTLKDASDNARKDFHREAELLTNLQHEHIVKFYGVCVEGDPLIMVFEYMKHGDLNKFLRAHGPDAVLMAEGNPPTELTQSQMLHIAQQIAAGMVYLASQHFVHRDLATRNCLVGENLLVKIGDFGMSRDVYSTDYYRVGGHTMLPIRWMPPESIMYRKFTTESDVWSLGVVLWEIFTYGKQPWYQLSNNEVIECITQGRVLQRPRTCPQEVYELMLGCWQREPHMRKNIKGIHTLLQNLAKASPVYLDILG
Serine/threonine-protein kinase Nek2, sequence (P51955 whole entry): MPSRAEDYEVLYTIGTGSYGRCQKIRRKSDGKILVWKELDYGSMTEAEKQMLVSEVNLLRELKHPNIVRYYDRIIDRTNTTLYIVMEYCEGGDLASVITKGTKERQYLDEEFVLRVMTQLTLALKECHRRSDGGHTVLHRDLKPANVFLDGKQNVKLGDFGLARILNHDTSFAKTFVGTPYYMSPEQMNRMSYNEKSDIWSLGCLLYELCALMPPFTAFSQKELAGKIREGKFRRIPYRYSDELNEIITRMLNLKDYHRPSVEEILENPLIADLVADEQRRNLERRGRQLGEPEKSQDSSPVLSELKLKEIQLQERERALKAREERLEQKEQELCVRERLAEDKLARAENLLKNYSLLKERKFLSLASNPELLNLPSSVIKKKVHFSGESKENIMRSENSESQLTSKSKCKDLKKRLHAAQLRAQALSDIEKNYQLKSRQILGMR
Calcium/calmodulin-dependent protein kinase type II subunit alpha, sequence (Q9UQM7 whole entry): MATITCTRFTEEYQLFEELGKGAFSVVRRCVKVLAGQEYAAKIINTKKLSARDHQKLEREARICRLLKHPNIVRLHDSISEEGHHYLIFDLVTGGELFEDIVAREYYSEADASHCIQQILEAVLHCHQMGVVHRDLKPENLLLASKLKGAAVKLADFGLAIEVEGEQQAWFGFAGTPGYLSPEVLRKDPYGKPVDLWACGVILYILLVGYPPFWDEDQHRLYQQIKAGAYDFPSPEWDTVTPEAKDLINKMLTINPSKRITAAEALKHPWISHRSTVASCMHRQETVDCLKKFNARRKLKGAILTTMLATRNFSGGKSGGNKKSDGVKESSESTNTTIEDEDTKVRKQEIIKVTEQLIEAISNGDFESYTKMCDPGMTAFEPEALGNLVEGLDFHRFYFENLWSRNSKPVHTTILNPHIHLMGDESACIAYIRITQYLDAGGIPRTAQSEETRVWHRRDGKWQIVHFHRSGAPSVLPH
Platelet-derived growth factor receptor alpha, sequence (P16234 whole entry): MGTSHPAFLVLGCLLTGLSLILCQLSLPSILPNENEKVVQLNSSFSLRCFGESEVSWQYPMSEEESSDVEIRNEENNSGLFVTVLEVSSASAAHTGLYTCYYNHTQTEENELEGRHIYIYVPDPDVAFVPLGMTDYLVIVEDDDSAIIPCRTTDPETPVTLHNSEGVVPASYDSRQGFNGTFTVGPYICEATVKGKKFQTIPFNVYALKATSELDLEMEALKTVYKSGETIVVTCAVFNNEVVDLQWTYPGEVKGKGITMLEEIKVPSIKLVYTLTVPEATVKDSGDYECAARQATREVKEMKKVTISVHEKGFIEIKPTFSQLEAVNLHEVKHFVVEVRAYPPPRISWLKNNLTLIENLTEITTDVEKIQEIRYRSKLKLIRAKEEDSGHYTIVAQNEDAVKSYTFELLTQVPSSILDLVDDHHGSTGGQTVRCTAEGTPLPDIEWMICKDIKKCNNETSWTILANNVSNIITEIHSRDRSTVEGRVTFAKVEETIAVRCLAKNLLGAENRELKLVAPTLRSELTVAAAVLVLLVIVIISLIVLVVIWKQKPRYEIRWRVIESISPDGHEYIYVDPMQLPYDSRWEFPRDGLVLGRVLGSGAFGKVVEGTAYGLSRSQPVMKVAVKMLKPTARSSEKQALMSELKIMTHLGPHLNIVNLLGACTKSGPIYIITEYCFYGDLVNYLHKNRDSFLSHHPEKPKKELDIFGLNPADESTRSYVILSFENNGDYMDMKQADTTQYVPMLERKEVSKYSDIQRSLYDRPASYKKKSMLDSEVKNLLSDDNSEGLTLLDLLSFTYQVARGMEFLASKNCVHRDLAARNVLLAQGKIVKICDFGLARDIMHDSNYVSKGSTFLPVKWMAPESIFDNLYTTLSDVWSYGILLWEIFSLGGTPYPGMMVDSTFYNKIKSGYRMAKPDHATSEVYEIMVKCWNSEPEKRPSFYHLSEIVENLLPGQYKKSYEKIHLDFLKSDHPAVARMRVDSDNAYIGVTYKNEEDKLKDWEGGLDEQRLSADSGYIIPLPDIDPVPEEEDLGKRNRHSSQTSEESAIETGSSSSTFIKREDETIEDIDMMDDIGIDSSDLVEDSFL
Vascular endothelial growth factor receptor 1, sequence (P17948 whole entry): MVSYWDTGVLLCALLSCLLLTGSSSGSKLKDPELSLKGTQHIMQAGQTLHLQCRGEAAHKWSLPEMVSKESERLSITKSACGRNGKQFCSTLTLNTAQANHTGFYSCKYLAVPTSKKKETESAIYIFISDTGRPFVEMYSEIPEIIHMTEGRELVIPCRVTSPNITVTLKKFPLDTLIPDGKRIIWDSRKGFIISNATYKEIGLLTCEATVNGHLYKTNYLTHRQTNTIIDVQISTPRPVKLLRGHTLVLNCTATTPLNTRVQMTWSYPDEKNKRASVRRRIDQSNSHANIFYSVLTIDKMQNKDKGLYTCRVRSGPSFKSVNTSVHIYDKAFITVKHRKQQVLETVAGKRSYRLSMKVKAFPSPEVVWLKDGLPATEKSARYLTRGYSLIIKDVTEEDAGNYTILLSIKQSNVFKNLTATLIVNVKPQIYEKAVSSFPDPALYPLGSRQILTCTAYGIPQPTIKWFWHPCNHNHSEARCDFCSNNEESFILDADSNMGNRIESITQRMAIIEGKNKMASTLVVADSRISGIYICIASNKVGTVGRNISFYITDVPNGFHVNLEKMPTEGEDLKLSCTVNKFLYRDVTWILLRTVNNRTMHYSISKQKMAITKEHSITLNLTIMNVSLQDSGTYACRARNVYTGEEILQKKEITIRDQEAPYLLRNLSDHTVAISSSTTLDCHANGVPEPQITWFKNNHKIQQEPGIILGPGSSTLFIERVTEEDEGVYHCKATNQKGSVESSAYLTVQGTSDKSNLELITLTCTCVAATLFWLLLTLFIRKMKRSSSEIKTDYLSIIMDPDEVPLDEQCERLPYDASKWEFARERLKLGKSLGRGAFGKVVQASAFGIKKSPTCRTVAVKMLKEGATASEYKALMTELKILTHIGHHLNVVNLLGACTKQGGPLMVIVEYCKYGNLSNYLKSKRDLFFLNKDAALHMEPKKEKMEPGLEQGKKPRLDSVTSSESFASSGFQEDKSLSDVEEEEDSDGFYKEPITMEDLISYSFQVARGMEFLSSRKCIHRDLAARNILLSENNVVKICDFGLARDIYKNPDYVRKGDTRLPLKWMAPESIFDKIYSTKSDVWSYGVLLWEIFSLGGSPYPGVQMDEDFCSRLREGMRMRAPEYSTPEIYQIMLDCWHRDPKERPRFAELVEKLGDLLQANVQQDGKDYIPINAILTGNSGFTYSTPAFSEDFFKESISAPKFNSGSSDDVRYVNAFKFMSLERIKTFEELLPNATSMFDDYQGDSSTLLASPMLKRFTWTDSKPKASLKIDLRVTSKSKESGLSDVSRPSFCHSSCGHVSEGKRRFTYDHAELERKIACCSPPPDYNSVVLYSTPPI
Mitogen-activated protein kinase 8, sequence (P45983 whole entry): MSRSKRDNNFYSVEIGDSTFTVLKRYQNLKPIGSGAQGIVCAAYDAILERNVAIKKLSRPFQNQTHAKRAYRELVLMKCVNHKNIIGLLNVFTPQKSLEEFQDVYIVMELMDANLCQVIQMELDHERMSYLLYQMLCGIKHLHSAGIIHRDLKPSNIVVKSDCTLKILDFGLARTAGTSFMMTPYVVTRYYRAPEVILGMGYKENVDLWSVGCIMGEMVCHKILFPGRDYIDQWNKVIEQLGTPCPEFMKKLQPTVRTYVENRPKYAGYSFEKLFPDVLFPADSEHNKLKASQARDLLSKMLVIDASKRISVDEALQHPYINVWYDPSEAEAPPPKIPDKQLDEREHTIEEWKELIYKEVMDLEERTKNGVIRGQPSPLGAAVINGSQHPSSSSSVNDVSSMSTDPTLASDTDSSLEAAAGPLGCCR
Casein kinase I isoform alpha, sequence (P48729 whole entry, the tested form may be a part, canonical isoform): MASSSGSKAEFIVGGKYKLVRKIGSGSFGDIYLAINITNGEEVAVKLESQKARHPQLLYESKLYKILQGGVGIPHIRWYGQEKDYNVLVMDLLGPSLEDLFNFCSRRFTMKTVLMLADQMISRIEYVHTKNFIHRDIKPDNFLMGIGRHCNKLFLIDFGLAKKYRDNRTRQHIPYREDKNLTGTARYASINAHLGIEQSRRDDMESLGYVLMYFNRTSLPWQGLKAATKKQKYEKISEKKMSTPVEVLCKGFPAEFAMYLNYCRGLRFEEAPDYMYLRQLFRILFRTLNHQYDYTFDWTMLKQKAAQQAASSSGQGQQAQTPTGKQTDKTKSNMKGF

In the case of `Nc1ncnc2c1N=C(c1ccccc1)CCN2`, the Ki [1] is reported as 39.8 µM (active), the Ki [2] is reported as 5.01 µM (active) and the Ki [3] is reported as 5.01 µM (active). The Ki [4] was 100 µM (active), the Ki [5] was 39.8 µM (active) and the Ki [6] was 15.8 µM (active). The Ki [7] was 10 µM (active), the Ki [8] was 12.6 µM (active) and the Ki [9] was 15.8 µM (active). The Ki [10] was 12.6 µM (active), the Ki [11] was 7.94 µM (active) and the Ki (Activin receptor type-1) was 10 µM (active). For the same compound, the Ki [12] was 79.4 µM (active), the Ki [13] was 20 µM (active) and the Ki (Aurora kinase A) was 7.94 µM (active). For the same compound, the Ki [14] was 100 µM (active), the Ki [15] was 63.1 µM (active) and the Ki [16] was 15.8 µM (active). For the same compound, the Ki (LIM domain kinase 1) was 12.6 µM (active), the Ki [17] was 79.4 µM (active) and the Ki [18] was 63.1 µM (active). For the same compound, the Ki [19] was 10 µM (active), the Ki [20] was 20 µM (active) and the Ki (Activated CDC42 kinase 1) was 39.8 µM (active). The Ki [21] was 25.1 µM (active), the Ki [22] was 3.98 µM (active) and the Ki [23] was 2 µM (active). For the same compound, the Ki [24] was 2 µM (active), the Ki [25] was 79.4 µM (active) and the Ki [26] was 25.1 µM (active). The Ki [27] was 2 µM (active), the Ki (Aurora kinase B) was 1.58 µM (active) and the Ki [28] was > 100 µM (inactive). The Ki [29] was 25.1 µM (active), the Ki [30] was 31.6 µM (active) and the Ki [31] was 12.6 µM (active). For the same compound, the Ki [32] was 39.8 µM (active), the Ki [33] was 12.6 µM (active) and the Ki [34] was 50.1 µM (active). The Ki [35] was > 63.1 µM (inactive), the Ki [36] was 63.1 µM (active) and the Ki [37] was 12.6 µM (active). For the same compound, the Ki [38] was 0.398 µM (active), the Ki [39] was 0.794 µM (active) and the Ki [40] was 2 µM (active). For the same compound, the Ki [41] was > 100 µM (inactive), the Ki [42] was 6.31 µM (active) and the Ki [43] was 3.16 µM (active). The Ki [44] was 31.6 µM (active), the Ki [45] was 31.6 µM (active) and the Ki [46] was 3.98 µM (active).
